Data taken from patent US11141428B2, “Octasaccharides and uses thereof” (Academia Sinica, priority 2017, dated 2021).
“Also recorded” adds a separate entry of the source.

Legend:
[1] = tested on: adult DRG neurons; assay: Rescue of dystrophic endballs and axonal growth of adult DRG neurons across an aggrecan gradient (FIG. 1b, c); assay type: cell-based, mice; settings: for promotion of axonal growth / penetration across an aggrecan gradient / rescue / prevention of dystrophic endball formation: 20 μg/mL, adult DRG neurons on aggrecan gradient, FIG. 1 panel b; for axons invading the aggrecan rim that could pass the rim of aggrecan gradient: FIG. 1 panel c, left, comparable to chondroitinase ABC (C-ABC) digestion of chondroitin sulfate
Experimental: Preparation of an aggrecan gradient spot on coverslip. Glass coverslips were coated with 100 μg/mL PLL overnight at room temperature, rinsed with sterile water and dried completely. Onto the coverslip, 2 μL of an aggrecan (0.4 mg/mL) and laminin (10 μg/mL) mixture in Ca^2+- and Mg^2+-free Hank's balanced salt solution (HBSS) (Invitrogen) was spotted and dried. Then, the coverslip was bathed in laminin ([…]) solution in HBSS until just before (i.e., at least 3 h before) cell plating at 37° C. The laminin solution was subsequently removed, and the cells were plated without allowing the surface of the coverslip to dry.
DRG neuron primary culture. DRGs were dissected out of C57BL/6J (SLC) adult (12-16 weeks) female mice. The roots of isolated DRGs were trimmed in cold HBSS, collected in a centrifuge tube and spun down for 1 min at low speed (500 rpm). Then, the HBSS was removed. The tissues were incubated in collagenase-II (4 mg/mL)/dispase-II (4.67 mg/mL) in HBSS for 15 min at 37° C. After spinning down at low speed, the tissues were rinsed once with pre-warmed culture media consisting of Neurobasal-A (Gibco) with Gluta-MAX (Gibco), Anti-Anti (Gibco) and B-27 (Invitrogen), then spun down and triturated in fresh media. To refine neurons, the cell suspension was carefully overlaid onto 15% bovine serum albumin (BSA) in HBSS and spun down for 5 min at high speed (1000 rpm), and the supernatant was gently removed. The DRG cells were rinsed once and suspended in the media. The DRG cells were plated onto coverslips in the media.
Immunostaining. DRG neurons were fixed in ice-cold methanol for 15 min at −30° C. The fixed samples were then rinsed three times with phosphate buffered saline (PBS) and incubated in a blocking solution containing 5% (v/v) goat serum (Vector) and 0.2% (v/v) Triton-X 100 (Sigma) for 90 min at room temperature. For neuron-specific class III β-tubulin (Tuj1) staining, samples were bathed in 1:1000 mouse monoclonal Tuj1 (Covance, 801201) diluted in PBS containing 2.5% (v/v) normal goat serum overnight at 4° C. After three washes with PBS, neurons were incubated with 1:250 Alexa488-conjugated goat anti-mouse IgG (Molecular Probes, A11001) dissolved in PBS containing 2.5% (v/v) goat serum for 2 h at room temperature.

[2] = tested on: RPTPσ; assay: Activation / phosphorylation of RPTPσ by sulfated octasaccharides (Western blot, densitometric analysis, FIG. 1a); assay type: cell-based; settings: 10 μg/mL, 15 min; FIG. 1 panel a
Experimental: SDS-PAGE and Western blotting. Cells were lysed with Tris-buffered saline (TBS), 1% Triton-X, Complete Mini Protease Inhibitor Cocktail (Roche) and Phostop Phosphatase Inhibitor Cocktail (Roche). Lysates were incubated on ice for 10 min and centrifuged at 20000 g for 10 min at 4° C. Supernatants were mixed with 4×SDS sample buffer and boiled for 5 min.
All samples were run on 5-20% gradient gel (Wako) and transferred to nitrocellulose membranes (GE Healthcare). After blocking with 5% non-fat dry milk or BSA, the membranes were blotted with primary antibodies. Primary antibodies used in this work included anti-EGFR pY1174 (Invitrogen, 44794G), anti-HA (Roche, clone 3F10), 4G10 Platinum (Millipore, 05-1050) and anti-β-actin (Sigma Aldrich, clone AC-15). All primary antibodies were used at 1:1000 dilution. All secondary antibodies conjugated with horseradish peroxidase were from Jackson ImmunoResearch and used at 1:3000 dilution. Membranes were developed with Novex ECL (Invitrogen) or ECL Plus Substrate (Pierce).

Row | Compound | promotion of axonal growth / penetration across an aggrecan gradient [1] | rescue / prevention of dystrophic endball formation [1] | axons invading the aggrecan rim that could pass the rim of aggrecan gradient [1] | activation of RPTPσ (inducing phosphorylation of RPTPσ) [2] | promotion of axonal growth / penetration across an aggrecan gradient ([1]; listed as HS 14) | rescue / prevention of dystrophic endball formation ([1]; listed as HS 14)
1 | 5-Aminopentyl (2-deoxy-2-sulfamido-6-O-sulfonato-α-D-glucopyranosyl)-(1→4)-α-L-idopyranosiduronyl-(1→4)-(2-deoxy-2-sulfamido-6-O-sulfonato-α-D-glucopyranosyl)-(1→4)-β-D-glucopyranosiduronyl-(1→4)-(2-deoxy-2-sulfamido-6-O-sulfonato-α-D-glucopyranosyl)-(1→4)-α-L-idopyranosiduronyl-(1→4)-(2-deoxy-2-sulfamido-6-O-sulfonato-α-D-glucopyranosyl)-(1→4)-β-D-glucopyranosiduronate [HS16] | facilitated their penetration across the gradient | prevent formation of dystrophic endballs | Nearly half | – | – | –
2 | 5-Aminopentyl (2-deoxy-2-sulfamido-α-D-glucopyranosyl)-(1→4)-α-L-idopyranosiduronyl-(1→4)-(2-deoxy-2-sulfamido-α-D-glucopyranosyl)-(1→4)-β-D-glucopyranosiduronyl-(1→4)-(2-deoxy-2-sulfamido-α-D-glucopyranosyl)-(1→4)-α-L-idopyranosiduronyl-(1→4)-(2-de oxy-2-sulfamido-α-D-glucopyranosyl)-(1→4)-β-D-glucopyranosiduronate [HS10] | – | – | – | capable of inducing phosphorylation of RPTPσ | – | –
3 | NCCCCCO[C@@H]1O[C@H](C(=O)O)[C@@H](O[C@H]2O[C@H](CO)[C@@H](O[C@@H]3O[C@@H](C(=O)O)[C@@H](O[C@H]4O[C@H](CO)[C@@H](O[C@@H]5O[C@H](C(=O)O)[C@@H](O[C@H]6O[C@H](CO)[C@@H](O[C@@H]7O[C@@H](C(=O)O)[C@@H](O[C@H]8O[C@H](CO)[C@@H](O)[C@H](O)[C@H]8NS(=O)(=O)O)[C@H](O)[C@H]7OS(=O)(=O)O)[C@H](O)[C@H]6NS(=O)(=O)O)[C@H](O)[C@H]5OS(=O)(=O)O)[C@H](O)[C@H]4NS(=O)(=O)O)[C@H](O)[C@H]3OS(=O)(=O)O)[C@H](O)[C@H]2NS(=O)(=O)O)[C@H](O)[C@H]1OS(=O)(=O)O [HS14] | promoted axonal growth | rescued dystrophic endball formation | Nearly half | capable of inducing phosphorylation of RPTPσ; also recorded: activated RPTPσ | facilitated their penetration across the gradient | prevent formation of dystrophic endballs
